Laboratory results taken from patent EP0694545B1, “Substituted dibenzoxazepine compounds, pharmaceutical compositions and methods of use” (G.D. SEARLE & CO., priority 1991, dated 1992).
Structures can show the parent of a compound that is named as a salt.

System: Charles River male albino mice
Test: PBQ Writhing Assay (analgesic activity)
Format: in vivo
Design: key to PBQ WRITHING ASSAY I.G. (Active / *) / PBQ WRITHING ASSAY S.C. (Active / *): *: Indicates that, in accordance with the particular conditions set forth above for the Writhing Assay, and under the test criteria employed for that assay, after the administration of an initial screening dosage of 30 mg per kilogram of the compound, the number of writhes elicited by a mouse injected with PBQ was not equal to, or less than, one-half the median number of writhes recorded for the saline-treated control group of mice that day
Conditions: for PBQ WRITHING ASSAY I.G. (Active / *): intragastric; for PBQ WRITHING ASSAY I.G. (Active / *) / PBQ WRITHING ASSAY S.C. (Active / *): initial screening dose 30 mg per kilogram, 30 min before PBQ i.p., writhes counted for ten minutes; for PBQ WRITHING ASSAY S.C. (Active / *): subcutaneous
Text: The Writhing Assay is one of the most widely-used experimental procedures for measuring the analgesic activity of different narcotic and nonnarcotic analgesic agents, and involves the continuous, chemically-induced pain of visceral origin to an animal, such as a mouse or rat. [Gyires et al., Arch. int. Pharmacodyn, 267, 131-140 (1984); […] al., Fed. Proc., 15, 494 (1956); Koster et al., Fed. Proc., 18, 412 (1959); and Witken et al., J. Pharmacol. exp. Ther., 133, 400-408 (1961).] Chemicals which may be used to induce this pain include phenylbenzoquinone (PBQ) and acetic acid. As a result of the chemical irritation to the animal, a characteristic stretching and writhing of the animal (dorsiflexion of the animal's back, extension of its hindlimbs and the strong contraction of its abdominal musculature) will generally occur. […] Drugs which reduce the number of writhes of the animal appear to restore the normal nociceptive threshold of the animal. Charles River male albino mice, weighing 20 to 30 grams were used in this assay. Thirty minutes after subcutaneous or intragastric administration to ten mice of 30 mg per kilogram of body weight of a compound of the present invention ("test compound"), […] per 10 g of body weight of a 0.025% w/v solution of PBQ was injected intraperitoneally into each mouse. Ten mice which were given saline in place of a test compound of the invention were used as a control group. Five minutes later, each mouse was individually placed into a glass beaker for observation, and the number of writhes occurring during the following ten-minute period was counted. A test compound was considered to have produced analgesia in a mouse if, in accordance with the conditions set forth above, and under the test criteria employed for this assay, after the administration of 30 mg per kilogram of body weight of a compound of the present invention to the mouse, the number of writhes elicited by a mouse injected with PBQ was equal to, or less than, one-half the median number of writhes recorded for the saline-treated control group of mice that day, as described by Taber in "Predictive Value of Analgesic Assays in Mice and Rats," Advances in Biochemical Psychopharmacology, 8, 191 (1974). The standard initial screening dose of a test compound employed in this assay was […] for both routes of administration. If this initial screening dose of the test compound produced analgesia in seven of ten mice, then the effect of additional doses of the test compound on the writhing response was evaluated, and then the ED50 dose was generally calculated. (The slopes of the dose-response curves for all test compounds analyzed were compared as described by Tallarida and Murray, Manual of Pharmacologic Calculations, Page 11 (Springer Verlag, New York, 1981)).

Compound | PBQ WRITHING ASSAY I.G. (Active / *) | PBQ WRITHING ASSAY S.C. (Active / *) | ED50 (Mus musculus, po, intragastric administration, read-out: PBQ WRITHING ASSAY (ED50 (mpk)) I.G.) [mg/kg]
8-chlorodibenz[b,f][1,4]oxazepine-10(11H)-carboxylic acid, 2-[1-oxo-4-(3-thienyl)-3E-butenyl]hydrazide [Example 13] | * | * | 
8-chlorodibenz[b,f][1,4]oxazepine-10(11H)-carboxylic acid, 2-[1-oxo-4-(3-thienyl)-3Z-butenyl]hydrazide [Example 14] | * | * | 
8-chlorodibenz[b,f][1,4loxazepine-10(11H)-carboxylic acid, 2-(2-pyridinylacetyl)hydrazide, monohydrochloride [Example 21] | * | * | 
O=C(/C=C/c1cccnc1)NNC(=O)N1Cc2ccccc2Oc2ccc(Cl)cc21 [Example 7, 8-chlorodibenz[b,f][1,4]oxazepine-10(11H)-carboxylic acid, 2-[1-oxo-3-(3-pyridinyl)-2E-propenyl]hydrazide] | Active | Active | 
O=C(CCc1cccnc1)NNC(=O)N1Cc2ccccc2Oc2ccc(Cl)cc21 [Example 8, 8-chlorodibenz[b,f][1,4]oxazepine-10(11H)-carboxylic acid, 2-[1-oxo-3-(3-pyridinyl)propyl]hydrazide, monohydrochloride] | Active | Active | 
O=C(CCc1cccc[n+]1[O-])NNC(=O)N1Cc2ccccc2Oc2ccc(Cl)cc21 [Example 10, 8-chlorodibenz[b,f][1,4]oxazepine-10(11H)--carboxylic acid, 2-[1-oxo-3-(2-pyridinyl)propyl]hydrazide, N-oxide] | * | * | 
O=C(CCCc1ccsc1)NNC(=O)N1Cc2ccccc2Oc2ccc(Cl)cc21 [Example 16, 8-chlorodibenz[b,f][1,4]oxazepine-10(11H)-carboxylic acid, 2-[1-oxo-4-(3-thienyl)butyl]hydrazide] | Active | * | 
Cl.O=C(NNC(=O)N1Cc2ccccc2Oc2ccc(Cl)cc21)c1ccncc1 [Example 17, 8-chlorodibenz[b,f][1,4]oxazepine-10(11H)-carboxylic acid, 2-(4-pyridinylcarbonyl)hydrazide, monohydrochloride] | * | * | 
Cl.O=C(NNC(=O)N1Cc2ccccc2Oc2ccc(Cl)cc21)c1cccnc1 [Example 18, 8-chlorodibenz[b,f][1,4]oxazepine-10(11H)-carboxylic acid, 2-(3-pyridinylcarbonyl)hydrazide, monohydrochloride] | * | * | 
Cl.O=C(NNC(=O)N1Cc2ccccc2Oc2ccc(Cl)cc21)c1ccccn1 [Example 19, 8-chlorodibenz[b,f][1,4]oxazepine-10(11H)-carboxylic acid, 2-(2-pyridinylcarbonyl)hydrazide, monohydrochloride] | * | * | 
Cl.O=C(/C=C/c1ccccn1)NNC(=O)N1Cc2ccccc2Oc2ccc(Cl)cc21 [Example 20, 8-chlorodibenz[b,f][1,4]oxazepine-10(11H)-carboxylic acid, 2-[1-oxo-3-(2-pyridinyl)-2E-propenyl]hydrazide, monohydrochloride] | * | * | 
Cl.O=C(Cc1cccnc1)NNC(=O)N1Cc2ccccc2Oc2ccc(Cl)cc21 [Example 22, 8-chlorodibenz[b,f][1,4]oxazepine-10(11H)-carboxylic acid, 2-(3-pyridinylacetyl)hydrazide, monohydrochloride] | * | Active | 
Cl.O=C(Cc1ccncc1)NNC(=O)N1Cc2ccccc2Oc2ccc(Cl)cc21 [Example 23, 8-chlorodibenz[b,f][1,4]oxazepine-10(11H)-carboxylic acid, 2-(4-pyridinylacetyl)hydrazide, monohydrochloride] | * | * | 
Cl.O=C(/C=C/c1ccncc1)NNC(=O)N1Cc2ccccc2Oc2ccc(Cl)cc21 [Example 27, 8-chlorodibenz[b,f][1,4]oxazepine-10(11H)-carboxylic acid, 2-[1-oxo-3-(4-pyridinyl)-2E-propenyl]hydrazide, monohydrochloride] | * | * | 
Cl.O=C(CCCc1ccccn1)NNC(=O)N1Cc2ccccc2Oc2ccc(Cl)cc21 [Example 29, 8-chlorodibenz[b,f][1,4]oxazepine-10(11H)-carboxylic acid, 2-[1-oxo-4-(2-pyridinyl)butyl]hydrazide, monohydrochloride] | Active | Active | 
O=C(CCCc1ccncc1)NNC(=O)N1Cc2ccccc2Oc2ccc(Cl)cc21 [Example 31, 8-chlorodibenz[b,f][1,4]oxazepine-10(11H)-carboxylic acid, 2-[1-oxo-4-(4-pyridinyl)butyl]hydrazide] | Active | Active | 
O=C(CCCCc1cccs1)NNC(=O)N1Cc2ccccc2Oc2ccc(Cl)cc21 [Example 33, β-chlorodibenz[b,f][1,4]oxazepine-10(11H)-carboxylic acid, 2-[1-oxo-5-(2-thienyl)pentyl]hydrazide] | * | * | 
O=C(NNC(=O)C(F)(F)Cc1ccccn1)N1Cc2ccccc2Oc2ccc(Cl)cc21 [Example 37, 8-chlorodibenz[b,f][1,4]oxazepine-10(11H)-carboxylic acid, 2-[2,2-difluoro-1-oxo-3-(2-pyridinyl)propyl]hydrazide] | Active |  | 9.7
